Several values for one entry are separate records, joined by “and”; a condition that tells them apart may be missing. Equal values may be shown once. Read-outs that look alike come from different tables or passages of the source.
Columns and labels:
[1] = Pharmacokinetics in ICR mice after intravenous and intragastric administration; format: in vivo; settings: for MRT last: read-out: MRT(0-t); for MRT inf: read-out: MRT(0-∞); for Vd: read-out: Vz
Procedure, shortened: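 Plasma concentration-time data, quantified by LC-MS/MS with a 1 ng/mL lower limit, gave AUC, t1/2, MRT, Cmax, Tmax, bioavailability, Vz and clearance. Overnight-fasted male ICR mice (three per route) received 2 mg/kg intravenously or 5 mg/kg intragastrically.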

[2] = tested on: human osteosarcoma cell line SJSA-1; assay: Inhibition of proliferation of human osteosarcoma cell line SJSA-1 (DAPI staining, In Cell Analyzer); settings: Homo sapiens, SJSA-1, 72 h, read-out: IC50 (nM), inhibitory activity on proliferation of human osteosarcoma cell line SJSA-1, SJSA-1, incubated 72 h
[3] = molecular target: T1, MDM2 (Homo sapiens, UniProt Q00987); assay: Inhibition test of MDM2-P53 (GST-MDM2, Biotin-P53, Anti-GST-Tb, SA-XL665); format: binding
T1 construct: made in house
Procedure, shortened: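 Binding was measured by TR-FRET with GST-MDM2 at 4 nM final in PBS with 0.1% BSA, 5 mM DTT and 1 mM AEBSF. Compounds were tested as twelve-point 5-fold dilutions and incubated with the detection mix for 90 min at 25 °C with shaking before plate-reader reading and curve fitting.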

[4] = ICR mice, IV 2 mg/kg, individual animal, 2 mg/kg
[5] = ICR mice, PO 5 mg/kg, individual animal, 5 mg/kg
[6] = male, ICR, mouse, plasma, iv, 2 mg/kg, ICR mice, IV 2 mg/kg, individual animal
[7] = male, ICR, mouse, plasma, iv, 2 mg/kg, ICR mice, IV 2 mg/kg, mean of 3 animals
[8] = male, ICR, mouse, plasma, po, 5 mg/kg, ICR mice, PO 5 mg/kg, individual animal
[9] = male, ICR, mouse, plasma, po, 5 mg/kg, ICR mice, PO 5 mg/kg, mean of 3 animals

T1 sequence (Q00987 whole entry): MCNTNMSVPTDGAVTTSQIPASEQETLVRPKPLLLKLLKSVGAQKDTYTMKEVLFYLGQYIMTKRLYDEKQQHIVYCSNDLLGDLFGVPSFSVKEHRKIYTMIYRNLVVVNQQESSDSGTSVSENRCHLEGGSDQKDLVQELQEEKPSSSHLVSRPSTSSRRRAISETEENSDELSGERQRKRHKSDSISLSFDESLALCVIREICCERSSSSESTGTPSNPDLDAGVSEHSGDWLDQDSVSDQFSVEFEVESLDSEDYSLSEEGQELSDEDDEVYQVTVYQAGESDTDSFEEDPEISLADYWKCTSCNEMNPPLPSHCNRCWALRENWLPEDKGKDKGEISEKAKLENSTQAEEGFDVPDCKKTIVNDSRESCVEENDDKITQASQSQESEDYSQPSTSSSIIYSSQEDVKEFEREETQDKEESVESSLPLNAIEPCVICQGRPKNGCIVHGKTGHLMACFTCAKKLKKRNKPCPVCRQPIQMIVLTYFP

COc1ncc(-c2nc3c(n2C(C)C)[C@@]2(C(=O)Nc4cc(Cl)ccc42)N(c2cc(Cl)ccc2F)C3=O)c(OC)n1 [Example S-44, (S)-6-chloro-5′-(5-chloro-2-fluorophenyl)-2′-(2,4-dimethoxypyrimidin-5-yl)-3′-isopropyl-3′H-spiro[dihydroindole-3,4′-pyrrolo[3,4-d]imidazole]-2,6′(5′H)-dione]
AUC(0-t) [1, 4]: 2703.63 ng·h/mL and 2987.84 ng·h/mL
AUC(0-∞) [1, 4]: 3052.47 ng·h/mL and 3364.67 ng·h/mL
CL [1, 4]: 10.92 mL/min/kg and 9.91 mL/min/kg
Cmax [1, 4]: 826.58 ng/mL and 951.21 ng/mL
MRT(0-t) [1, 4]: 1.82 h
MRT(0-∞) [1, 4]: 2.61 h and 2.56 h
Vz [1, 4]: 1.82 L/kg and 1.64 L/kg
t1/2 [1, 4]: 1.92 h and 1.91 h
AUC(0-t) [1, 5]: 5161.46 ng·h/mL and 6287.89 ng·h/mL
AUC(0-∞) [1, 5]: 5447.83 ng·h/mL and 6556.64 ng·h/mL
Cmax [1, 5]: 1097.85 ng/mL and 1204.30 ng/mL
MRT(0-t) [1, 5]: 2.81 h and 3.08 h
MRT(0-∞) [1, 5]: 3.22 h and 3.38 h
Tmax [1, 5]: 2.00 h
t1/2 [1, 5]: 1.77 h and 1.65 h
AUC(0-inf) [1, 6]: 2770 ng·h/mL
clearance [1, 6]: 12.1 mL/min/kg
AUC(0-t) ([1]; male, ICR, mouse, plasma, iv, 2 mg/kg, ICR mice, IV 2 mg/kg, individual animal, read-out: AUC(0-t)): 2510 ng·h/mL
Cmax ([1]; male, ICR, mouse, plasma, iv, 2 mg/kg, ICR mice, IV 2 mg/kg, individual animal, read-out: Cmax): 872 ng/mL
MRT last [1, 6]: 1.71 h
MRT inf [1, 6]: 2.35 h
Tmax ([1]; male, ICR, mouse, plasma, iv, 2 mg/kg, ICR mice, IV 2 mg/kg, individual animal, read-out: Tmax): 0.08 h
Vd [1, 6]: 1.86 L/kg
half-life ([1]; male, ICR, mouse, plasma, iv, 2 mg/kg, ICR mice, IV 2 mg/kg, individual animal, read-out: t1/2 (converted)): 1.79 h
AUC(0-inf) [1, 7]: 3060 ng·h/mL
clearance [1, 7]: 11 mL/min/kg
AUC(0-t) ([1]; male, ICR, mouse, plasma, iv, 2 mg/kg, ICR mice, IV 2 mg/kg, mean of 3 animals, read-out: AUC(0-t)): 2730 ng·h/mL
Cmax ([1]; male, ICR, mouse, plasma, iv, 2 mg/kg, ICR mice, IV 2 mg/kg, mean of 3 animals, read-out: Cmax): 883 ng/mL
MRT last [1, 7]: 1.77 h
MRT inf [1, 7]: 2.51 h
Tmax ([1]; male, ICR, mouse, plasma, iv, 2 mg/kg, ICR mice, IV 2 mg/kg, mean of 3 animals, read-out: Tmax): 0.083 h
Vd [1, 7]: 1.77 L/kg
half-life ([1]; male, ICR, mouse, plasma, iv, 2 mg/kg, ICR mice, IV 2 mg/kg, mean of 3 animals, read-out: t1/2 (converted)): 1.87 h
AUC(0-inf) [1, 8]: 8960 ng·h/mL
AUC(0-t) ([1]; male, ICR, mouse, plasma, po, 5 mg/kg, ICR mice, PO 5 mg/kg, individual animal, read-out: AUC(0-t)): 7900 ng·h/mL
Cmax ([1]; male, ICR, mouse, plasma, po, 5 mg/kg, ICR mice, PO 5 mg/kg, individual animal, read-out: Cmax): 1360 ng/mL
MRT last [1, 8]: 3.17 h
MRT inf [1, 8]: 4.17 h
Tmax ([1]; male, ICR, mouse, plasma, po, 5 mg/kg, ICR mice, PO 5 mg/kg, individual animal, read-out: Tmax): 1 h
half-life ([1]; male, ICR, mouse, plasma, po, 5 mg/kg, ICR mice, PO 5 mg/kg, individual animal, read-out: t1/2 (converted)): 2.56 h
AUC(0-inf) [1, 9]: 6990 ng·h/mL
AUC(0-t) ([1]; male, ICR, mouse, plasma, po, 5 mg/kg, ICR mice, PO 5 mg/kg, mean of 3 animals, read-out: AUC(0-t)): 6450 ng·h/mL
Cmax ([1]; male, ICR, mouse, plasma, po, 5 mg/kg, ICR mice, PO 5 mg/kg, mean of 3 animals, read-out: Cmax): 1220 ng/mL
MRT last [1, 9]: 3.02 h
MRT inf [1, 9]: 3.59 h
Tmax ([1]; male, ICR, mouse, plasma, po, 5 mg/kg, ICR mice, PO 5 mg/kg, mean of 3 animals, read-out: Tmax): 1.33 h
half-life ([1]; male, ICR, mouse, plasma, po, 5 mg/kg, ICR mice, PO 5 mg/kg, mean of 3 animals, read-out: t1/2 (converted)): 2 h
AUC(0-t) ([1]; male, ICR, mouse, plasma, po, 5 mg/kg, oral intragastric administration 5 mg/kg, read-out: AUC0-t): 6450 ng·h/mL
half-life ([1]; male, ICR, mouse, plasma, po, 5 mg/kg, oral intragastric administration 5 mg/kg, read-out: half-life (converted)): 2 h
bioavailability ([1]; male, ICR, mouse, plasma, oral intragastric administration 5 mg/kg, read-out: bioavailability): 94.4%
bioavailability ([1]; male, mouse, plasma, ICR mice, PO 5 mg/kg vs IV 2 mg/kg, from mean values, read-out: F* (bioavailability)): 94.4%
IC50 [2]: 11.9 nM
IC50 [3]: 1.18 nM
